Data on 35 molecules can be found in patent publication US20090029995A1, “HETERO BIARYL DERIVATIVES AS MATRIX METALLOPROTEINASE INHIBITORS” (WARNER-LAMBERT COMPANY, priority 2002, published 2009).

Structures can show the parent of a compound that is named as a salt.

As a reminder, the melting point is the temperature, or range, at which the solid turns liquid. For orientation: IC50 means the midpoint of a concentration-inhibition curve.

For data set [1], the target named is T1, MMP-13 catalytic domain (Homo sapiens, UniProt P45452).
T1 construct: use the catalytic domain of the MMP-13 enzyme, namely matrix metalloproteinase-13 catalytic domain (“MMP-13CD”)
In words: MMP-13 catalytic domain inhibition (thiopeptolide substrate hydrolysis). Format: biochemical. The settings on record: read-out: MMP-13CD IC50. The source says:
The assays measure the amount by which a test compound reduces the hydrolysis of a thiopeptolide substrate catalyzed by a matrix metalloproteinase enzyme. […] One such assay is described below in Biological Method 1.
Some of the particular methods described below use the catalytic domain of the MMP-13 enzyme, namely matrix metalloproteinase-13 catalytic domain (“MMP-13CD”), rather than the corresponding full-length enzyme, MMP-13.
Thiopeptolide substrates show virtually no decomposition or hydrolysis at or below neutral pH in the absence of a matrix metalloproteinase enzyme. A typical thiopeptolide substrate commonly utilized for assays is Ac-Pro-Leu-Gly-thioester-Leu-Leu-Gly-OEt. […] Assays are carried out with and without matrix metalloproteinase inhibitor compounds, and the amount of hydrolysis is compared for a determination of inhibitory activity of the test compounds.

On to `COc1cc(CNC(=O)c2cccc(-c3nnn(Cc4ccc(C(=O)O)cc4)n3)c2)ccn1` (as salt: TFA) [Example 33, 4-(5-{3-[(2-Methoxy-pyridin-4-ylmethyl)-carbamoyl]-phenyl}-tetrazol-2-ylmethyl)-benzoic acid], for which the melting point is 228 °C (dec.).
The same measure, in the same setting: the figure for `COC(=O)c1ccc(CNC(=O)c2cccc(-c3nnn(Cc4cccc(OC)c4)n3)c2)cc1` [Example 3, 4-({3-[2-(3-Methoxy-benzyl)-2H-tetrazol-5-yl]-benzoylamino}-methyl)-benzoic acid methyl ester] is 153 to 154 °C; for `O=C(O)c1ccc(CNC(=O)c2cccc(-c3nnn(Cc4ccc(F)cc4)n3)c2)cc1` [Example 6, 4-({3-[2-(4-Fluoro-benzyl)-2H-tetrazol-5-yl]-benzoylamino}-methyl)-benzoic acid] it is 222 to 224 °C; for `O=C(O)c1ccc(CNC(=O)c2cccc(-c3nnn(Cc4cccc(F)c4)n3)c2)cc1` [Example 8, 4-({3-[2-(3-Fluoro-benzyl)-2H-tetrazol-5-yl]-benzoylamino}-methyl)-benzoic acid] it is 217 to 219 °C.
`COC(=O)c1ccc(CNC(=O)c2cccc(-c3nnn(Cc4nccs4)n3)c2)cc1` [Example 9] returned a melting point of 158 to 160 °C.
For the molecule `C/C=C/Cn1nnc(-c2cccc(C(=O)NCc3ccc(C(=O)OC)cc3)c2)n1` [Example 10, 4-{[3-(2-But-2-enyl-2H-tetrazol-5-yl)-benzoylamino]-methyl}benzoic acid methyl ester], the melting point was 107 to 108 °C.
Molecule `COc1ccc(Cn2nnc(-c3cccc(C(=O)NCc4nccs4)c3)n2)cc1` [Example 11, 3-[2-(4-Methoxy-benzyl)-2H-tetrazol-5-yl]-N-thiazol-2-ylmethyl-benzamide] returned a melting point of 143 to 145 °C.
Still for that read-out and setting: next, `COc1ccc(Cn2nnc(-c3cccc(C(=O)NCc4ccc(CN5CCOCC5)cc4)c3)n2)cc1` [Example 12, 3-[2-(4-Methoxy-benzyl)-2H-tetrazol-5-yl]-N-(4-morpholin-4-ylmethyl-benzyl)-benzamide]: 161 to 162 °C; `COc1ccc(Cn2nnc(-c3cccc(C(=O)NCc4ccc(F)c(Cl)c4)c3)n2)cc1` [Example 13, N-(3-Chloro-4-fluoro-benzyl)-3-[2-(4-methoxy-benzyl)-2H-tetrazol-5-yl]-benzamide]: 150 to 151 °C.
In the case of `O=C(O)c1ccc(Cn2nnc(-c3cccc(-c4nnc(Cc5ccccc5)o4)c3)n2)cc1` [Example A1, 4-{5-[3-(5-Benzyl-[1,3,4]oxadiazol-2-yl)-phenyl]-tetrazol-2-ylmethyl}-benzoic acid], the IC50 in data set [1] amounted to 440 nM.
In the case of `O=C(O)c1ccc(Cn2nnc(-c3cccc(-c4nnc(-c5ccccc5)o4)c3)n2)cc1` [Example A2, 4-{5-[3-(5-Phenyl-[1,3,4]oxadiazol-2-yl)-phenyl]-tetrazol-2-ylmethyl}-benzoic acid], in data set [1], the IC50 was above 3000 nM.
Consider `CC(C)(C)OC(=O)c1ccc(Cn2nnc(-c3cccc(-c4ncc(-c5ccccc5)o4)c3)n2)cc1` [Example A3, 4-{5-[3-(5-Phenyl-oxazol-2-yl)-phenyl]-tetrazol-2-ylmethyl}-benzoic acid tertiary butyl ester], for which the IC50 in data set [1] came to 1400 nM.
Take `O=C(O)c1ccc(Cn2nnc(-c3cccc(-c4ncc(-c5ccccc5)o4)c3)n2)cc1` [Example A4, 4-{5-[3-(5-Phenyl-oxazol-2-yl)-phenyl]-tetrazol-2-ylmethyl}-benzoic acid]: the 50% inhibitory concentration (IC50) in data set [1] was 400 nM.
For `Fc1ccc(Cn2nnc(-c3cccc(-c4ncc(-c5ccccc5)o4)c3)n2)cc1F` [Example A5, 2-(3,4-Difluoro-benzyl)-5-[3-(5-phenyl-oxazol-2-yl)-phenyl]-2H-tetrazole], the IC50 in data set [1] was 1800 nM.
Regarding `COc1ccc(-c2cnc(-c3cccc(-c4nnn(Cc5ccc(C(=O)OC(C)(C)C)cc5)n4)c3)o2)cc1` [Example A6, 4-(5-{3-[5-(4-Methoxy-phenyl)-oxazol-2-yl]-phenyl}-tetrazol-2-ylmethyl)-benzoic acid tertiary butyl ester], the IC50 in data set [1] was determined as 1000 nM.
`COc1ccc(-c2cnc(-c3cccc(-c4nnn(Cc5ccc(C(=O)O)cc5)n4)c3)o2)cc1` [Example A7, 4-(5-{3-[5-(4-Methoxy-phenyl)-oxazol-2-yl]-phenyl}-tetrazol-2-ylmethyl)-benzoic acid]: in data set [1], the IC50 was 18 nM.
Turning to `COc1ccc(-c2cnc(-c3cccc(-c4nnn(Cc5ccc(F)c(F)c5)n4)c3)o2)cc1` [Example A8, 2-(3,4-Difluoro-benzyl)-5-{3-[5-(4-methoxy-phenyl)-oxazol-2-yl]-phenyl}-2H-tetrazole], the IC50 in data set [1] came out at 1300 nM.
In the case of `COc1ccc(-c2cnc(-c3cccc(-c4nnn(Cc5ccc(C(=O)O)cc5)n4)c3)s2)cc1` [Example A9, 4-(5-{3-[5-(4-Methoxy-phenyl)-thiazol-2-yl]-phenyl}-tetrazol-2-ylmethyl)-benzoic acid], the IC50 in data set [1] amounted to 3.6 nM.
With `COc1ccc(-c2cnc(-c3cccc(-c4nnc(-c5ccc(C(=O)O)cc5)o4)c3)o2)cc1` [Example B1, 4-(5-{3-[5-(4-Methoxy-phenyl)-oxazol-2-yl]-phenyl}-[1,3,4]oxadiazol-2-yl)-benzoic acid], the IC50 in data set [1] was 49000 nM.
As to `COc1ccc(-c2cnc(-c3cccc(-c4nnc(Cc5ccc(C(=O)O)cc5)o4)c3)o2)cc1` [Example B2, 4-(5-{3-[5-(4-Methoxy-phenyl)-oxazol-2-yl]-phenyl}-[1,3,4]oxadiazol-2-ylmethyl)-benzoic acid], the IC50 in data set [1] amounted to 200 nM.
For `COc1ccc(-c2cnc(-c3cccc(-c4nnc(Cc5ccc(C(=O)O)cc5)s4)c3)o2)cc1` [Example B3, 4-(5-{3-[5-(4-Methoxy-phenyl)-oxazol-2-yl]-phenyl}-[1,3,4]thiadiazol-2-ylmethyl)-benzoic acid], in data set [1], the IC50 amounted to 14 nM.
`O=C(O)c1ccc(-c2nnc(-c3cccc(C#CCc4ccccc4)c3)o2)cc1` [Example C1, 4-{5-[3-(3-Phenyl-prop-1-ynyl)-phenyl]-[1,3,4]oxadiazol-2-yl}-benzoic acid]: the IC50 in data set [1] stood at 3400 nM.
Same read-out and setting: next, `NCc1ccc(Cn2nnc(-c3cccc(C#CCc4ccccc4)c3)n2)cc1` [Example D6, 4-{5-[3-(3-Phenyl-prop-1-ynyl)-phenyl]-tetrazol-2-ylmethyl}-benzylamine]: 2800 nM; `CCCC(=O)NCc1ccc(Cn2nnc(-c3cccc(C#CCc4ccccc4)c3)n2)cc1` [Example D7, N-(4-{5-[3-(3-Phenyl-prop-1-ynyl)-phenyl]-tetrazol-2-ylmethyl}-benzyl)-butyramide]: 1300 nM; `CC(=O)NCc1ccc(Cn2nnc(-c3cccc(C#CCc4ccccc4)c3)n2)cc1` [Example D8, N-(4-{5-[3-(3-Phenyl-prop-1-ynyl)-phenyl]-tetrazol-2-ylmethyl}-benzyl)-acetamide]: 330 nM.
Take `O=C(O)c1ccc(Cn2nnc(-c3cccc(C(=O)NCc4ccncc4)c3)n2)cc1` [Example F1, 4-(5-{3-[(Pyridin-4-ylmethyl)-carbamoyl]-phenyl}-tetrazol-2-ylmethyl)-benzoic acid; compound with trifluoro-acetic acid]: the IC50 in data set [1] is 99 nM.
For `O=C(O)c1ccc(Cn2nnc(-c3cccc(C(=O)NCc4cccnc4)c3)n2)cc1` [Example F2, 4-(5-{3-[(Pyridin-3-ylmethyl)-carbamoyl]-phenyl}-tetrazol-2-ylmethyl)-benzoic acid; compound with trifluoro-acetic acid], the IC50 in data set [1] was determined as 280 nM.
On the same count and under the same terms, the figure for `O=C(O)c1ccc(Cn2nnc(-c3cccc(C#CCOc4ccc(F)cc4)c3)n2)cc1` [Example G4, 4-(5-{3-[3-(4-Fluoro-phenoxy)-prop-1-ynyl]-phenyl}-tetrazol-2-ylmethyl)-benzoic acid] is 86 nM; for `O=C(O)c1ccc(Cn2nnc(-c3cccc(C#CCn4ccnc4)c3)n2)cc1` [Example G5, 4-{5-[3-(3-Imidazol-1-yl-prop-1-ynyl)-phenyl]-tetrazol-2-ylmethyl}-benzoic acid] it is 6.8 nM.
In the case of `O=C(O)c1ccc(Cn2nnc(-c3cccc(C#CCn4ccc(=O)cc4)c3)n2)cc1` [Example G6, 4-(5-{3-[3-(4-Oxo-4H-pyridin-1-yl)-prop-1-ynyl]-phenyl}-tetrazol-2-ylmethyl)-benzoic acid], the IC50 in data set [1] came out at 6.4 nM.
On to `O=C(O)c1ccc(Cn2nnc(-c3cccc(C#CCn4cnc(-c5ccccc5)c4)c3)n2)cc1` [Example G7, 4-(5-{3-[3-(4-Phenyl-imidazol-1-yl)-prop-1-ynyl]-phenyl}-tetrazol-2-ylmethyl)-benzoic acid], for which the IC50 in data set [1] was determined as 29 nM.
As to `CC(C#Cc1cccc(-c2nnn(Cc3ccc(C(=O)O)cc3)n2)c1)c1ccccc1` (centres unmarked) [Example G8, 4-{5-[3-(3-Phenyl-but-1-ynyl)-phenyl]-tetrazol-2-ylmethyl}-benzoic acid], the IC50 in data set [1] amounted to 1800 nM.
With `O=C(O)c1ccc(Cn2nnc(-c3cncc(C#CCc4ccc(F)cc4)c3)n2)cc1` [Example H2, 4-(5-{5-[3-(4-Fluoro-phenyl)-prop-1-ynyl]-pyridin-3-yl}-tetrazol-2-ylmethyl)-benzoic acid], the half-inhibitory concentration (IC50) in data set [1] was 8.3 nM.
Take `O=C(O)c1ccc(Cn2nnc(-c3cncc(C#CCn4ccnc4)c3)n2)cc1` [Example H3, 4-{5-[5-(3-Imidazol-1-yl-prop-1-ynyl)-pyridin-3-yl]-tetrazol-2-ylmethyl}-benzoic acid]: the IC50 in data set [1] was 160 nM.
As to “[4-(5-{3-[3-(4-Fluoro-phenyl)-prop-1-ynyl]-phenyl}-tetrazol-2-ylmethyl)-phenyl]-phosphonic acid [Example D2]”, the IC50 in data set [1] turned out to be 13 nM.
